Data taken from patent publication US11957684B2, “Treatment of heavy menstrual bleeding associated with uterine fibroids” (Sumitomo Pharma Switzerland GmbH, priority 2016, dated 2024).
Where “and” joins values, the source holds several entries; their conditions need not be identical. Equal entries are not always repeated.

System: heavy menstrual bleeding associated with uterine fibroids
Test: Example 5A 12-week placebo-controlled study in uterine fibroids: efficacy (PBAC, volumes, NRS, UFS-QOL, anemia parameters)
Format: in vivo, human
Description: Study participants were Japanese women with HMB (heavy menstrual bleeding) associated with UF (uterine fibroids).
Only the largest myomas among those measurable at Visit 1 were measured throughout the study.
During the period between Visit 2 and 3, in which subjects must have experienced at least 1 regular menstrual cycle, the baseline values concerning efficacy evaluation, including PBAC scores and pain symptoms, were collected. The baseline PBAC score is the total PBAC score for the entire menstrual cycle immediately before Visit 3.
Visit 3 was on Days 1 to 5 of the second menstrual cycle after Visit 1. From Visits 3 to 7, subjects tried to visit the clinics in a fasted state and before taking the study drug.
When a dose was missed before breakfast, subjects took the study drug 30 minutes before either dinner or lunch on the same day.
Pain symptoms, other clinical symptoms and QOL were measured as secondary endpoints. Pain symptoms were evaluated in the patient diary from Visit 1 to the day before Visit 7 using the NRS score. The UFS-QOL score was used to evaluate other clinical symptoms and the QOL of subjects. Subjects completed the UFS-QOL questionnaire at Visits 3, 5, 6 and 7.
In particular, FIGS. 50-52 tabulate hemoglobin concentrations; FIG. 53 tabulates hematocrit percentages; FIG. 54 tabulates serum iron concentrations; and FIG. 55 tabulates ferritin concentrations.
PBAC scores were used in Example 5A, and provide an estimate of menstrual blood loss volume. The PBAC score was evaluated by having subjects record details related to menstrual blood loss on a PBAC score sheet distributed by the sponsor during the treatment period. […] These items represent the level of stained sanitary materials over the course of a menstrual cycle, with a total score ranging from 0 (none) to infinity. Higher scores indicate heavier blood loss. The PBAC score sheet also allows subjects to indicate: whether they experienced bleeding between periods that required sanitary protection; whether they passed clots, and if so, approximate size of the clots; whether they experienced episodes of flooding; and whether they required double protection (used both a pad and tampon simultaneously). As used in the PBAC score sheet of Example 5A, flooding is defined as overflowing, or staining, of clothing or underwear due to menstrual bleeding.
The total PBAC score was derived by summing points for each of the above.
All myoma and uterine volumes referred to herein were evaluated using transvaginal ultrasound. Specifically, the myoma volumes were calculated using the following formula: D1×D2×D3×π/6, where D1 is the longest diameter of the myoma; D2 is the longest diameter of the myoma at an angle perpendicular to D1; and D3 is the diameter of the myoma crossing the intersection of D1 and D2 perpendicular to the D1/D2 plane.

[1] = 20 mg, Week 12, listed as Relugolix
[2] = 40 mg, Week 6-12, listed as Relugolix
[3] = 40 mg, Week 12, listed as Relugolix

## CONC(=O)Nc1ccc(-c2sc3c(c2CN(C)C)c(=O)n(-c2ccc(OC)nn2)c(=O)n3Cc2c(F)cccc2F)cc1 [Compound 1, N-(4-(1-(2,6-difluorobenzyl)-5-((dimethylamino)methyl)-3-(6-methoxy-3-pyridazinyl)-2,4-dioxo-1,2,3,4-tetrahydrothieno[2,3-d]pyrimidin-6-yl)phenyl)-N′-methoxyurea]
20 mg, Week 8
  UFS-QOL HRQL total score: 9.54±10.904
  UFS-QOL symptom severity score: 18.53±13.304
  ferritin value: 16.34 ± 15.659 ng/mL
  myoma volume: 86.34±103.084 cm^3
  uterine volume: 290.93±413.549 cm^3
20 mg, Week 12
  Fe value (serum iron): 85.7 ± 44.40 µg/dL
  Ht value: 40.54±3.003%
  UFS-QOL HRQL total score: 9.63±12.735
  UFS-QOL HRQL total, change from baseline: −2.11±10.529
  UFS-QOL symptom severity score: 16.56±14.024
  UFS-QOL symptom severity, change from baseline: −8.97±15.530
  change of Fe value from baseline: 24.7 ± 53.53 µg/dL
  change of Hb from baseline: 0.83 ± 1.161 g/dL
  change of Ht value from baseline: 2.31±3.522%
  change of ferritin value from baseline: 3.50 ± 10.229 ng/mL
  ferritin value: 18.03 ± 14.427 ng/mL
  myoma volume: 75.09±89.699 cm^3
  percent change of myoma volume from baseline: −36.69±32.631%
  percent change of uterine volume from baseline: −27.70±28.787%
  uterine volume: 259.44±322.759 cm^3
[1]
  UFS-QOL HRQL total, change from baseline: −2
  UFS-QOL symptom severity, change from baseline: −9
  change of Hb from baseline: 0.8 g/dL
  percent change of myoma volume from baseline: −37%
  percent change of uterine volume from baseline: −28%
40 mg (n = 55)
  Amenorrhea (PBAC from Week 6 to 12 was 0), number of patients: 40 n
40 mg, Week 2
  myoma volume: 109.29±132.534 cm^3
  uterine volume: 293.51±288.596 cm^3
40 mg, Week 2-6
  NRS score: 0.29±0.564
  subjects who achieved amenorrhea (PBAC = 0): 54.5%
  subjects with total PBAC score <10: 65.5%
40 mg, Week 2-12
  NRS score: 0.27±0.535
  subjects with total PBAC score <10: 61.8%
40 mg, Week 4
  Fe value (serum iron): 77.6 ± 44.81 µg/dL
  Ht value: 39.44±4.012%
  UFS-QOL HRQL total score: 11.31±12.082
  UFS-QOL symptom severity score: 24.10±16.141
  ferritin value: 15.14 ± 15.133 ng/mL
  myoma volume: 100.04±139.060 cm^3
  uterine volume: 267.74±275.256 cm^3
40 mg, Week 6-12
  NRS score: 0.25±0.542
  change of total PBAC score from baseline: −238.7±203.34
  subjects who achieved amenorrhea (PBAC = 0): 72.7% and 73%
  subjects with total PBAC score <10: 83.6%
  total PBAC score (mean±SD): 21.3±56.11
[2]
  NRS score: 0.2
  subjects who achieved amenorrhea (PBAC = 0): (72.7) %
40 mg, Week 8
  Fe value (serum iron): 78.2 ± 41.91 µg/dL
  Ht value: 40.23±3.620%
  UFS-QOL HRQL total score: 11.20±12.279
  UFS-QOL symptom severity score: 18.08±15.187
  ferritin value: 18.10 ± 16.177 ng/mL
  myoma volume: 86.01±120.639 cm^3
  uterine volume: 224.91±227.442 cm^3
40 mg, Week 12
  Fe value (serum iron): 82.0 ± 36.93 µg/dL
  Ht value: 40.53±3.307%
  UFS-QOL HRQL total score: 9.52±10.885
  UFS-QOL HRQL total, change from baseline: −5.52±15.871
  UFS-QOL symptom severity score: 14.05±15.272
  UFS-QOL symptom severity, change from baseline: −11.25±17.274
  change of Fe value from baseline: 25.5 ± 44.43 µg/dL
  change of Hb from baseline: 0.92 ± 1.183 g/dL
  change of Ht value from baseline: 2.46±3.445%
  change of ferritin value from baseline: 8.91 ± 13.131 ng/mL
  ferritin value: 21.84 ± 21.509 ng/mL
  myoma volume: 77.88±110.873 cm^3
  percent change of myoma volume from baseline: −38.59±34.197%
  percent change of uterine volume from baseline: −40.90±37.233%
  uterine volume: 208.03±209.312 cm^3
[3]
  UFS-QOL HRQL total, change from baseline: −6
  UFS-QOL symptom severity, change from baseline: −11
  change of Hb from baseline: 0.9 g/dL
  percent change of myoma volume from baseline: −39%
  percent change of uterine volume from baseline: −41%
